One test has as its target hKv1.5 (Homo sapiens, UniProt P22460). As to the kind of experiment: Kv1.5 Autopatch Electrophysiology (whole cell patch-clamp). Format: cell-based. As to conditions: compound at 1µM, room temperature (22-24°C), held at -80mV, step to 0mV for 1000ms, total charge measured. The essentials: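 Whole-cell automated patch-clamp at 22-24°C, compounds tested at 1µM in external bather (KCl/K-gluconate, pH 7.4; KCl/EGTA pipette). Cells held at -80mV and stepped to 0mV for 1000ms every 5s; only cells with IK > 500 pA and Rseries ≤18 MΩ used. Read-out: total charge over the whole step.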
In general terms: Patch clamp records ionic current or voltage across a cell membrane.

Another test deals with T1, human Kv1.5 (Homo sapiens, UniProt P22460).
T1 construct: expressed in transfected cells
As to the kind of experiment: Kv1.5 Rb+ Efflux Assay. As to conditions: inhibition of 86Rb+ efflux through Kv1.5; cells stably transfected with human Kv1.5; 10 point concentration response curves n=2; normalised to 2.5mM 4 amino-pyridine block. The class given is cell-based. In short, it runs like this: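 Cells stably expressing human Kv1.5 loaded with ⁸⁶Rb⁺ ≥3 h, preincubated 10 min at room temperature with compound, then depolarised with high-KCl (145mM) buffer for 10 min; effluxed ⁸⁶Rb⁺ counted by Cerenkov emission (alternatively ⁸⁵Rb⁺ by atomic absorption). Inhibition normalised to 2.5mM 4-aminopyridine block; IC50 from 10-point curves, n=2, variable-slope sigmoidal fit.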

Sequence of hKv1.5 (P22460 whole entry): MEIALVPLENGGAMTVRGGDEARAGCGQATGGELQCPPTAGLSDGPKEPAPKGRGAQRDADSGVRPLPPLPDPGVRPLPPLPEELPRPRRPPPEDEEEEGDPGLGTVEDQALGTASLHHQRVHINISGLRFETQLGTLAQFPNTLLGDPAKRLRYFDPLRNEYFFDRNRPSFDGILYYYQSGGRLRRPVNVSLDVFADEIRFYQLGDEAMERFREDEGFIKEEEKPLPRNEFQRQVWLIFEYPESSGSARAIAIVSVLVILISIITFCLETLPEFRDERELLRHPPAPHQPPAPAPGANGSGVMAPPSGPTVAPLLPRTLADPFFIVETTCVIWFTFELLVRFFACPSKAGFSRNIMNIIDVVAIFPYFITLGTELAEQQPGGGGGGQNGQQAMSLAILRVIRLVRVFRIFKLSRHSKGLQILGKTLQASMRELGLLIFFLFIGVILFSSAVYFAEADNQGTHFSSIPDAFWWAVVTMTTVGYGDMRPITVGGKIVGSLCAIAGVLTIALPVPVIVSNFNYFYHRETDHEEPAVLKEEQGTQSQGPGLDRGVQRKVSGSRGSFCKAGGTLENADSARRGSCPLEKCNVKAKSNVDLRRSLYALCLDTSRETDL
T1 sequence (P22460 whole entry): as above

At hKv1.5, `Clc1nc(NCc2ccccn2)c2c(-c3ccccc3)csc2n1` [Example 181, (2-Chloro-5-phenyl-thieno[2,3-d]pyrimidin-4-yl)-pyridin-2-ylmethyl-amine] displayed an inhibition at 1 µM of 96%. Half-maximal inhibition on human Kv1.5 (IC50) required 4130 nM.

`Clc1nc(NCc2ccco2)c2c(-c3ccccc3)csc2n1` [Example 182, (2-Chloro-5-phenyl-thieno[2,3-d]pyrimidin-4-yl)-furan-2-ylmethyl-amine] showed an inhibition at 1 µM at hKv1.5 of 75.8%. On human Kv1.5, this molecule displayed an IC50 of 1040 nM.

In turn, `c1ccc(-c2csc3nc(NCC4CC4)nc(NCc4ccccn4)c23)cc1` [Example 188, N^2-Cyclopropylmethyl-5-phenyl-N^4-pyridin-2-ylmethyl-thieno[2,3-d]pyrimidine-2,4-diamine] displayed an inhibition at 1 µM against hKv1.5 of 98%. Half-maximal inhibition at human Kv1.5 (IC50) was put at 2520 nM.

For the molecule `OCCNc1nc(NCc2ccccn2)c2c(-c3ccccc3)csc2n1` [Example 190, 2-{5-Phenyl-4-[(pyridin-2-ylmethyl)-amino]-thieno[2,3-d]pyrimidin-2-ylamino}-ethanol], on hKv1.5, the inhibition at 1 µM was 97.1%. The IC50 on human Kv1.5 is 260 nM.

Molecule `COc1nc(NCc2ccccn2)c2c(-c3ccccc3)csc2n1` [Example 191, (2-Methoxy-5-phenyl-thieno[2,3-d]pyrimidin-4-yl)-pyridin-2-ylmethyl-amine] displayed an inhibition at 1 µM against hKv1.5 of 91.8%. For the same molecule, on human Kv1.5, the IC50 stood at 470 nM.

On hKv1.5, `c1ccc(-c2csc3nc(NCc4ccco4)nc(NCc4ccco4)c23)cc1` [Example 193, N,N'-Bis(2-furylmethyl)-5-phenylthieno[2,3-d]pyrimidine-2,4-diamine] came in with an inhibition at 1 µM of 89.2%. This molecule also gave an IC50 against human Kv1.5 of 2500 nM.

Consider `c1ccc(COc2nc(NCc3ccco3)c3c(-c4ccccc4)csc3n2)cc1` [Example 195, (2-Benzyloxy-5-phenyl-thieno[2,3-d]pyrimidin-4-yl)-furan-2-ylmethyl-amine], for which 1 µM produced 90% inhibition at hKv1.5. On human Kv1.5, this molecule showed an IC50 of 6390 nM.

With `CNc1nc(NCc2ccccn2)c2c(-c3ccccc3)csc2n1` [Example 196, N^2-methyl-5-phenyl-N^4-(pyridin-2-ylmethyl)thieno[2,3-d]pyrimidine-2,4-diamine], at 1 µM the inhibition at hKv1.5 was 97%. At human Kv1.5, this molecule registered an IC50 of 40 nM.

`c1ccc(-c2csc3nc(N4CCOCC4)nc(NCc4ccccn4)c23)cc1` [Example 197, (2-Morpholin-4-yl-5-phenyl-thieno[2,3-d]pyrimidin-4-yl)-pyridin-2-ylmethyl-amine] showed an inhibition at 1 µM against hKv1.5 of 98%. The molecule also displayed an IC50 against human Kv1.5 of 150 nM.

At hKv1.5, `N#Cc1nc(NCc2ccccn2)c2c(-c3ccccc3)csc2n1` [Example 199, 5-Phenyl-4-[(pyridin-2-ylmethyl)-amino]-thieno[2,3-d]pyrimidine-2-carbonitrile] yielded an inhibition at 1 µM of 99.5%. On human Kv1.5, this molecule gave an IC50 of 6610 nM.

Molecule `CN(C)c1nc(NCc2ccccn2)c2c(-c3ccc(F)cc3)csc2n1` [Example 200, 5-(4-Fluorophenyl)-N^2,N^2-dimethyl-N^4-pyridin-2-ylmethyl-thieno[2,3-d]pyrimidine-2,4-diamine] registered an inhibition at 1 µM on hKv1.5 of 99.3%. This molecule also showed an IC50 on human Kv1.5 of 71800 nM.

In turn, `COC(=O)C1CCN(c2nc(NCc3ccccn3)c3c(-c4ccc(F)cc4)csc3n2)CC1` [Example 201, 1-{5-(4-Fluorophenyl)-4-[(pyridin-2-ylmethyl)-amino]-thieno[2,3-d]pyrimidin-2-yl}-piperidine-4-carboxylic acid methyl ester] showed an inhibition at 1 µM against hKv1.5 of 98.2%. Besides, on human Kv1.5, it took 15900 nM to reach half-maximal inhibition (IC50).

Consider `CCOC(=O)CCNc1nc(NCc2ccccn2)c2c(-c3ccccc3)csc2n1` [Example 202, 3-{5-Phenyl-4-[(pyridin-2-ylmethyl)-amino]-thieno[2,3-d]pyrimidin-2-ylamino}-propionic acid ethyl ester], for which at 1 µM the inhibition at hKv1.5 was 98%. The molecule further yielded an IC50 against human Kv1.5 of 2700 nM.

`COCCOc1nc(NCc2ccccn2)c2c(-c3ccccc3)csc2n1` [Example 203, [2-(2-Methoxy-ethoxy)-5-phenyl-thieno[2,3-d]pyrimidin-4-yl]-pyridin-2-ylmethyl-amine] came in with an inhibition at 1 µM against hKv1.5 of 98%. On human Kv1.5, this molecule registered an IC50 of 480 nM.

In the case of `CNc1nc(NCc2ccccn2)c2c(-c3ccc(F)cc3)csc2n1` [Example 204, 5-(4-Fluorophenyl)-N^2-methyl-N^4-pyridin-2-ylmethyl-thieno[2,3-d]pyrimidine-2,4-diamine], testing at 1 µM on hKv1.5 gave an inhibition of 97.9%. On human Kv1.5, this molecule showed an IC50 of 4700 nM.

In the case of `Nc1nc(NCc2ccccn2)c2c(-c3ccc(F)cc3)csc2n1` [Example 205, 5-(4-Fluorophenyl)-N^4-pyridin-2-ylmethyl-thieno[2,3-d]pyrimidine-2,4-diamine], 1 µM produced 97.5% inhibition on hKv1.5. Further, at human Kv1.5, the IC50 came out at 11900 nM.

At hKv1.5, `OCCC1CCN(c2nc(NCc3ccccn3)c3c(-c4ccccc4)csc3n2)CC1` [Example 206, 2-(1-{5-Phenyl-4-[(pyridin-2-ylmethyl)-amino]-thieno[2,3-d]pyrimidin-2-yl}-piperidin-4-yl)-ethanol] gave an inhibition at 1 µM of 97.5%. The molecule also yielded an IC50 at human Kv1.5 of 3410 nM.

`Fc1ccc(-c2csc3nc(N4CCOCC4)nc(NCc4ccccn4)c23)cc1` [Example 207, [5-(4-Fluorophenyl)-2-morpholin-4-yl-thieno[2,3-d]pyrimidin-4-yl]-pyridin-2-ylmethyl-amine] showed an inhibition at 1 µM at hKv1.5 of 97.2%. For the same molecule, the midpoint of inhibition on human Kv1.5, the IC50, lay at 42500 nM.

As to `OCCN(CCO)c1nc(NCc2ccccn2)c2c(-c3ccccc3)csc2n1` [Example 208, 2-((2-Hydroxy-ethyl)-{5-phenyl-4-[(pyridin-2-ylmethyl)-amino]-thieno[2,3-d]pyrimidin-2-yl}-amino)-ethanol], the inhibition at 1 µM against hKv1.5 is 96.6%. The molecule further registered an IC50 against human Kv1.5 of 330 nM.

For `COCCNc1nc(NCc2ccccn2)c2c(-c3ccc(F)cc3)csc2n1` [Example 209, 5-(4-Fluorophenyl)-N^2-(2-methoxy-ethyl)-N^4-pyridin-2-ylmethyl-thieno[2,3-d]pyrimidine-2,4-diamine], the inhibition at 1 µM against hKv1.5 is 96%. Moreover, inhibition against human Kv1.5 was half-maximal at 1830 nM (IC50).

`OCC(CO)Nc1nc(NCc2ccccn2)c2c(-c3ccccc3)csc2n1` [Example 210, 2-{5-Phenyl-4-[(pyridin-2-ylmethyl)-amino]-thieno[2,3-d]pyrimidin-2-ylamino}-propane-1,3-diol]: on hKv1.5, the inhibition at 1 µM came to 95.6%. On human Kv1.5, this molecule gave a half-inhibitory concentration (IC50) of 740 nM.

For `CN(C)CCOc1nc(NCc2ccccn2)c2c(-c3ccccc3)csc2n1` [Example 211, [2-(2-Dimethylamino-ethoxy)-5-phenyl-thieno[2,3-d]pyrimidin-4-yl]-pyridin-2-ylmethyl-amine], the inhibition at 1 µM on hKv1.5 came out at 89%. For the same molecule, the IC50 against human Kv1.5 was found to be 5370 nM.

In turn, `OCCNc1nc(NCc2ccccn2)c2c(-c3ccc(F)cc3)csc2n1` [Example 212, 2-{5-(4-Fluorophenyl)-4-[(pyridin-2-ylmethyl)-amino]-thieno[2,3-d]pyrimidin-2-ylamino}-ethanol] returned an inhibition at 1 µM at hKv1.5 of 87%. The same molecule came in with an IC50 at human Kv1.5 of 7630 nM.

In turn, `CCOC(=O)Cc1nc(NCc2ccccn2)c2c(-c3ccccc3)csc2n1` [Example 237, {5-Phenyl-4-[(pyridin-2-ylmethyl)amino]thieno[2,3-d]pyrimidin-2-yl} acetic acid ethyl ester] had an inhibition at 1 µM against hKv1.5 of 95%. Besides, the IC50 against human Kv1.5 was found to be 540 nM.

With `CCOC(=O)Cc1nc(NCc2ccco2)c2c(-c3ccccc3)csc2n1` [Example 238, {4-[(Furan-2-ylmethyl)-amino]-5-phenyl-thieno[2,3-d]pyrimidin-2-yl}-acetic acid ethyl ester], on hKv1.5, at 1 µM the inhibition was 96%. Further, the IC50 at human Kv1.5 turned out to be 3330 nM.

For the molecule `OCCc1nc(NCc2ccccn2)c2c(-c3ccccc3)csc2n1` [Example 250, 2-{5-Phenyl-4-[(pyridin-2-ylmethyl)amino]thieno[2,3-d]pyrimidin-2-yl}ethanol], 1 µM produced 98% inhibition against hKv1.5. This molecule also showed an IC50 against human Kv1.5 of 330 nM.

Turning to `OCCc1nc(NCc2ccco2)c2c(-c3ccccc3)csc2n1` [Example 251, 2-{4-[(Furan-2-ylmethyl)-amino]-5-phenyl-thieno[2,3-d]pyrimidin-2-yl}-ethanol], on hKv1.5, the inhibition at 1 µM was 98%. On human Kv1.5, this molecule gave an IC50 of 80 nM.

In the case of `OCC(CO)c1nc(NCc2ccccn2)c2c(-c3ccccc3)csc2n1` [Example 275, 2-{5-Phenyl-4-[(pyridin-2-ylmethyl)-amino]-thieno[2,3-d]pyrimidin-2-yl}-propane-1,3-diol], testing at 1 µM against hKv1.5 gave an inhibition of 93%. At human Kv1.5, this molecule returned an IC50 of 1530 nM.

Take `FC(F)(F)c1ccc(-c2csc3ncnc(NCc4ccccn4)c23)cc1` [Example 313, Pyridin-2-ylmethyl-[5-(4-trifluoromethyl-phenyl)-thieno[2,3-d]pyrimidin-4-yl]-amine]: 1 µM produced 98.3% inhibition against hKv1.5. The molecule further came in with an IC50 against human Kv1.5 of 2900 nM.

`c1ccc(CNc2ncnc3scc(-c4ccc5c(c4)OCO5)c23)nc1` [Example 314, (5-Benzo[1,3]dioxol-5-yl-thieno[2,3-d]pyrimidin-4-yl)-pyridin-2-ylmethyl-amine] displayed an inhibition at 1 µM at hKv1.5 of 97.3%. On human Kv1.5, half-maximal inhibition (IC50) was put at 10 nM.

Turning to `c1ccc(CNc2ncnc3scc(-c4ccc5c(c4)OCCO5)c23)nc1` [Example 320, [5-(2,3-Dihydro-benzo[1,4]dioxin-6-yl)-thieno[2,3-d]pyrimidin-4-yl]-pyridin-2-ylmethyl-amine], the inhibition at 1 µM against hKv1.5 amounted to 97%. This molecule also yielded a half-inhibitory concentration (IC50) against human Kv1.5 of 370 nM.

As a reminder, the inhibition is the change of the read-out against control, counted positive when it falls. As usually defined, the IC50 is the point on the concentration scale where inhibition reaches its midpoint.

The record behind these values is patent EP1641803B1, “THIENOPYRIMIDINE DERIVATIVES AS POTASSIUM CHANNEL INHIBITORS” (Xention Limited, priority 2003, dated 2004).
